Tests used:
hA1AR [1] = target: T1, hA1AR (Homo sapiens (Human), UniProt P30542); test: Radioligand membrane binding at hA1AR (Example 6); conditions: for inhibition at 10 µM: read-out: (% inhibition) A1; for Ki: CHO cells expressing hA1AR, [3H]R-PIA, n = 3-5, read-out: Affinity Ki, nM A1; for (% inhibition) A1: percent inhibition of radioligand binding at 10 μM
Protocol: (§1) In addition, 800 μg/mL Geneticin and 500 μg/mL hygromycin were added to the A2A media and to the A1 and A3 media, respectively. […] The concentration of protein was determined using a BCA Protein Assay Kit from Pierce Biotechnology (Rockford, Ill.).
(§2) Radioligand binding assays at A1, A2A, and A3ARs were performed according to the procedures described previously.
(§3) All of the filters were washed 3 times with Tris-HCl, pH 7.5. […] Filters for A3AR binding were counted using a PerkinElmer Cobra II γ-counter.
(§4) Binding and functional parameters were calculated using Prism 5.0 software (GraphPAD, San Diego, Calif., USA). IC50 values obtained from competition curves were converted to Ki values using the Cheng-Prusoff equation. Data were expressed as mean±standard error.

hA2AAR = hA2AAR (Homo sapiens (Human), UniProt P29274); test: Radioligand membrane binding at hA2AAR (Example 6); conditions: for inhibition at 10 µM: read-out: (% inhibition) A2A; for Ki: HEK293 cells expressing hA2AAR, [3H]CGS21680, n = 3-5, read-out: Affinity Ki, nM A2A; for (% inhibition) A2A: percent inhibition of radioligand binding at 10 μM
Protocol: as §1, §2, §3, §4

hA3AR = hA3AR (Homo sapiens (Human), UniProt P0DMS8); test: Radioligand membrane binding at hA3AR (Example 6); conditions: for Ki: CHO cells expressing hA3AR, [125I]I-AB-MECA, n = 3-5, read-out: Affinity Ki, nM A3
Protocol: Chinese hamster ovary (CHO) cells stably expressing either the recombinant hA1 or hA3AR and human embryonic kidney (HEK) 293 cells stably expressing the human (h) A2AAR were cultured in DMEM and F12 (1:1), supplemented with 10% fetal bovine serum, 100 units/mL penicillin, 100 μg/mL streptomycin, and 2 μmol/mL glutamine. In addition, 800 μg/mL Geneticin and 500 μg/mL hygromycin were added to the A2A media and to the A1 and A3 media, respectively. […] The concentration of protein was determined using a BCA Protein Assay Kit from Pierce Biotechnology (Rockford, Ill.).
The mixtures were incubated at 25° C. for 60 min. Binding reactions were terminated by filtration through Whatman GF/B filters under a reduced pressure using a MT-24 cell harvester (Brandell, Gaithersburg, Md.). Filters were washed three times with 5 ml of 50 mM ice-cold Tris-HCl buffer (pH 7.5). […] All of the filters were washed 3 times with Tris-HCl, pH 7.5. […] Filters for A3AR binding were counted using a PerkinElmer Cobra II γ-counter.

hA1AR [2] = target: T1, hA1AR; test: A1AR functional assay, inhibition of forskolin-stimulated cyclic AMP production in AR-transfected CHO cells; format: cell-based; conditions: for inhibition at 10 µM: CHO, read-out: % Inhibition, cyclic AMP A1; for % Inhibition, cyclic AMP A1: maximal efficacy at 10 μM, in comparison to effect (100%) of full agonist CPA at 10 μM, n = 3-5
Protocol: CHO cells that expressed the recombinant human or rat A3AR or the human A1 or A2BAR were harvested by trypsinization. After centrifugation and resuspended in medium, cells were planted in 24-well plates in 1.0 mL medium. […] The reaction was terminated by removing the supernatant, and cells were lysed upon the addition of 200 μL of 0.1 M ice-cold HCl. The cell lysate was resuspended and stored at −20° C. For determination of cyclic AMP production, protein kinase A (PKA) was incubated with [^3H]cyclic AMP (2 nM) in K2HPO4/EDTA buffer (K2HPO4, 150 mM; EDTA, 10 mM), 20 μL of the cell lysate, and 30 μL 0.1 M HCl or 50 μL of cyclic AMP solution (0-16 pmol/200 μL for standard curve). Bound radioactivity was separated by rapid filtration through Whatman GF/C filters and washed once with cold buffer. Bound radioactivity was measured by liquid scintillation spectrometry.
Intracellular cAMP levels were measured with a competitive protein binding method.

hA3AR, sequence (P0DMS8 whole entry): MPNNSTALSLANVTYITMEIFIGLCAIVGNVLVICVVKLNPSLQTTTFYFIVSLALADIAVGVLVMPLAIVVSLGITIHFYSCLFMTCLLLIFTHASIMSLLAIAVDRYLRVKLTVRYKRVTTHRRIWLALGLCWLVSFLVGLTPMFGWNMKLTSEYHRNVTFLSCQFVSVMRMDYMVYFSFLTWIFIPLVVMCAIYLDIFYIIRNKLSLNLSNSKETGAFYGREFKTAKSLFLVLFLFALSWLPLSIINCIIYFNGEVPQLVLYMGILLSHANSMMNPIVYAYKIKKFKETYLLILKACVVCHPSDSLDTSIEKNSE
T1 sequence (P30542 whole entry): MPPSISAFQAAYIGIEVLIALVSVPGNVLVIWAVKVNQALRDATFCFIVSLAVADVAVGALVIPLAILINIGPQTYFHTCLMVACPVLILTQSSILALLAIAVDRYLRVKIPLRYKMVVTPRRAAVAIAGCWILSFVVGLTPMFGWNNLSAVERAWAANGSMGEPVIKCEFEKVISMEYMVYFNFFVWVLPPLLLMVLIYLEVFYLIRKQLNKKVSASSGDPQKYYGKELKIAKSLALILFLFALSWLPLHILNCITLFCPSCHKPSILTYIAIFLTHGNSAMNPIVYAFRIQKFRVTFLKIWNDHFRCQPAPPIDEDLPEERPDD
hA2AAR, sequence (P29274 whole entry): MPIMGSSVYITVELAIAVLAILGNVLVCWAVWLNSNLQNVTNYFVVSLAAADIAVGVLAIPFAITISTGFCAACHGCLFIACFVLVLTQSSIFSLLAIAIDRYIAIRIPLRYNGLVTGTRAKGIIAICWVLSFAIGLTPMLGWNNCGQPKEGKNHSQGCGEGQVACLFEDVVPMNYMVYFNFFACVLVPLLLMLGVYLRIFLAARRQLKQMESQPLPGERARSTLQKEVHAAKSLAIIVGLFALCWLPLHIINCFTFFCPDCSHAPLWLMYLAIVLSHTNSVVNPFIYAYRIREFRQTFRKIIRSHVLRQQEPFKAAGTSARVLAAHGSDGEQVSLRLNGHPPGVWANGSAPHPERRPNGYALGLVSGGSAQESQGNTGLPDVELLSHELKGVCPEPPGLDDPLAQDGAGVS

Compound | Ki (hA3AR) [nM] | Ki (hA1AR [1]) [nM] | Ki (hA2AAR) [nM] | inhibition at 10 µM (hA1AR [2]) [%] | further results
O[C@@H]1[C@H](O)[C@@H]2C[C@@H]2[C@H]1n1cnc2c(NCc3cccc(OCCF)c3)nc(Cl)nc21 [Compound 124, (1R,2R,3S,4R,5S)-4-(2-chloro-6-(3-(2-fluoroethoxy)benzylamino)-9H-purin-9-yl)bicyclo[3.1.0]hexane-2,3-diol] | 15.2 ± 3 | – | – | – | inhibition at 10 µM (hA1AR [1]): 34%; inhibition at 10 µM (hA2AAR): 32%
COc1cc(F)c(F)cc1CNc1nc(Cl)nc2c1ncn2[C@H]1[C@H](O)[C@H](O)[C@@H]2C[C@@H]21 [Compound 127, (1R,2R,3S,4R,5S)-4-(2-chloro-6-(4,5-difluoro-2-methoxybenzylamino)-9H-purin-9-yl)bicyclo[3.1.0]hexane-2,3-diol] | 83.2 ± 35.7 | – | – | – | inhibition at 10 µM (hA1AR [1]): 41%; inhibition at 10 µM (hA2AAR): 30%
O[C@@H]1[C@H](O)[C@@H]2C[C@@H]2[C@H]1n1cnc2c(N[C@@H](CC3CC3)C3CC3)nc(Cl)nc21 [Compound 219, (1R,2R,3S,4R,5S)-4-(2-Chloro-6-((S)-1,2-dicyclopropylethylamino)-9H-purin-9-yl)bicyclo[3.1.0]hexane-2,3-diol] | 550 ± 50 | 170 ± 20 | 2550 ± 170 | 24 ± 5.2 | –
O[C@@H]1[C@H](O)[C@@H]2C[C@@H]2[C@H]1n1cnc2c(N[C@H](C3CCC3)C3CC3)nc(Cl)nc21 [Compound 217, (1R,2R,3S,4R,5S)-4-(2-Chloro-6-((S)-cyclopropylcyclobutylmethylamino)-9H-purin-9-yl)bicyclo[3.1.0]hexane-2,3-diol] | 2790 ± 720 | 120 ± 40 | 6450 ± 720 | – | % Inhibition, cyclic AMP A1 (hA1AR [2]): 18.1 ± 6.8%
O[C@@H]1[C@H](O)[C@@H]2C[C@@H]2[C@H]1n1cnc2c(N[C@@H](C3CCC3)C3CC3)nc(Cl)nc21 [Compound 216, (1R,2R,3S,4R,5S)-4-(2-Chloro-6-((R)-cyclopropylcyclobutylmethylamino)-9H-purin-9-yl)bicyclo[3.1.0]hexane-2,3-diol] | 2930 ± 480 | 270 ± 60 | 5470 ± 300 | – | % Inhibition, cyclic AMP A1 (hA1AR [2]): 33.4 ± 5.2%
COc1ccc(F)c(F)c1CNc1nc(Cl)nc2c1ncn2[C@H]1[C@H](O)[C@H](O)[C@@H]2C[C@@H]21 [Compound 126, (1R,2R,3S,4R,5S)-4-(2-chloro-6-(2,3-difluoro-6-methoxybenzylamino)-9H-purin-9-yl)bicyclo[3.1.0]hexane-2,3-diol] | 16.5 ± 2.8 | 1260 ± 240 | – | – | inhibition at 10 µM (hA2AAR): 38%
O[C@@H]1[C@H](O)[C@@H]2C[C@@H]2[C@H]1n1cnc2c(NC3CCCCCCC3)nc(Cl)nc21 [Compound 112, (1R,2R,3S,4R,5S)-4-(2-Chloro-6-(cyclooctylamino)-9H-purin-9-yl)bicyclo[3.1.0]hexane-2,3-diol] | 1530 ± 60 | 760 ± 110 | – | 40.1 ± 9 | –
CC(Nc1nc(Cl)nc2c1ncn2[C@H]1[C@H](O)[C@H](O)[C@@H]2C[C@@H]21)C1CC1 (stereo partly drawn) [Compound 120, (1R,2R,3S,4R,5S)-4-(2-Chloro-6-(1-cyclopropylethylamino)-9H-purin-9-yl)bicyclo[3.1.0]hexane-2,3-diol] | 110 ± 17 | 86.8 ± 23.7 | – | – | (% inhibition) A2A (hA2AAR): (41%)
CCC(CC)Nc1nc(Cl)nc2c1ncn2[C@H]1[C@H](O)[C@H](O)[C@@H]2C[C@@H]21 [Compound 118, (1R,2R,3S,4R,5S)-4-(2-Chloro-6-(pentan-3-ylamino)-9H-purin-9-yl)bicyclo[3.1.0]hexane-2,3-diol] | 52 ± 14 | 78.8 ± 15.6 | 3700 ± 300 | 28.6 ± 3.8 | –
O[C@@H]1[C@H](O)[C@@H]2C[C@@H]2[C@H]1n1cnc2c(N[C@H](CC3CC3)C3CC3)nc(Cl)nc21 [Compound 218, (1R,2R,3S,4R,5S)-4-(2-Chloro-6-((R)-1,2-dicyclopropylethylamino)-9H-purin-9-yl)bicyclo[3.1.0]hexane-2,3-diol] | 1760 ± 210 | 490 ± 90 | 4840 ± 400 | 18.4 ± 2.1 | –
O[C@@H]1[C@H](O)[C@@H]2C[C@@H]2[C@H]1n1cnc2c(NCc3ccccc3OCCF)nc(Cl)nc21 [Compound 123, (1R,2R,3S,4R,5S)-4-(2-chloro-6-(2-(2-fluoroethoxy)benzylamino)-9H-purin-9-yl)bicyclo[3.1.0]hexane-2,3-diol] | 10.3 ± 1.5 | – | – | – | –
(1R,2R,3S,4R,5S)-4-(2-Chloro-6-(exo-norbornyl)-9H-purin-9-yl)bicyclo[3.1.0]hexane-2,3-diol [Compound 114] | 236 ± 43 | 200 ± 30 | 4080 ± 170 | – | % Inhibition, cyclic AMP A1 (hA1AR [2]): 27.8 ± 6.2%
O[C@@H]1[C@H](O)[C@@H]2C[C@@H]2[C@H]1n1cnc2c(NCC3CC3)nc(Cl)nc21 [Compound 119, (1R,2R,3S,4R,5S)-4-(2-Chloro-6-(cyclopropylmethylamino)-9H-purin-9-yl)bicyclo[3.1.0]hexane-2,3-diol] | 8.9 ± 1.9 | 68.4 ± 8.9 | 4410 ± 1090 | 81 ± 21.1 | –
OC[C@H]1O[C@@H](n2cnc3c(NC4CCCC4)ncnc32)[C@H](O)[C@@H]1O [Compound 235a, N^6-cyclopentyladenosine, reference compound] | – | – | – | – | % Inhibition, cyclic AMP A1 (hA1AR [2]): 100 ± 2.6%
CC(C)[C@@H](Nc1nc(Cl)nc2c1ncn2[C@H]1[C@H](O)[C@H](O)[C@@H]2C[C@@H]21)C1CC1 [Compound 214, (1R,2R,3S,4R,5S)-4-(2-Chloro-6-((R)-1-cyclopropyl-2-methyl-propylamino)-9H-purin-9-yl)bicyclo[3.1.0]hexane-2,3-diol] | 780 ± 80 | 76 ± 8 | 1570 ± 180 | 33.8 ± 2.3 | –
O[C@@H]1[C@H](O)[C@@H]2C[C@@H]2[C@H]1n1cnc2c(NCC(C3CC3)C3CC3)nc(Cl)nc21 [Compound 207, (1R,2R,3S,4R,5S)-4-(2-Chloro-6-(2,2-dicyclopropylethylamino)-9H-purin-9-yl)bicyclo[3.1.0]hexane-2,3-diol] | 670 ± 10 | 780 ± 100 | – | -9 ± 4.1 | –
O[C@@H]1[C@H](O)[C@@H]2C[C@@H]2[C@H]1n1cnc2c(NCc3cc(F)ccc3F)nc(Cl)nc21 [Compound 125, (1R,2R,3S,4R,5S)-4-(2-chloro-6-(2,5-difluorobenzylamino)-9H-purin-9-yl)bicyclo[3.1.0]hexane-2,3-diol] | 114 ± 45 | 3580 ± 220 | – | – | inhibition at 10 µM (hA2AAR): 46%
O[C@@H]1[C@H](O)[C@@H]2C[C@@H]2[C@H]1n1cnc2c(NCc3ccccc3F)nc(Cl)nc21 [Compound 122, (1R,2R,3S,4R,5S)-4-(2-Chloro-6-(2-fluorobenzylamino)-9H-purin-9-yl)bicyclo[3.1.0]hexane-2,3-diol] | 41.5 ± 1 | 4790 ± 670 | – | – | –
O[C@@H]1[C@H](O)[C@@H]2C[C@@H]2[C@H]1n1cnc2c(N[C@H](c3ccccc3)C3CC3)nc(Cl)nc21 [Compound 221, (1R,2R,3S,4R,5S)-4-(2-Chloro-6-((S)-cyclopropylphenylmethylamino)-9H-purin-9-yl)bicyclo[3.1.0]hexane-2,3-diol] | – | – | – | – | (% inhibition) A1 (hA1AR [1]): (50 ± 5%); (% inhibition) A2A (hA2AAR): (36 ± 4%); % Inhibition, cyclic AMP A1 (hA1AR [2]): −2.4 ± 3.7%
OCc1cc(F)c(F)cc1CNc1nc(Cl)nc2c1ncn2[C@@]12C[C@H](O)[C@H](O)[C@@H]1C2 [Compound 128] | 40.4 ± 13.1 | 1910 ± 310 | 7510 ± 690 | – | –
O[C@@H]1[C@H](O)[C@@H]2C[C@@H]2[C@H]1n1cnc2c(NC3CCC3)nc(Cl)nc21 [Compound 109, (1R,2R,3S,4R,5S)-4-(2-Chloro-6-(cyclobutylamino)-9H-purin-9-yl)bicyclo[3.1.0]hexane-2,3-diol] | 5.9 ± 0.5 | 51.6 ± 12.6 | 3020 ± 90 | – | –
O[C@@H]1[C@H](O)[C@@H]2C[C@@H]2[C@H]1n1cnc2c(NC(C3CCCC3)C3CCCC3)nc(Cl)nc21 [Compound 211, (1R,2R,3S,4R,55)-4-(2-Chloro-6-(dicyclopentylmethylamino)-9H-purin-9-yl)bicyclo[3.1.0]hexane-2,3-diol] | – | – | – | – | (% inhibition) A1 (hA1AR [1]): (34 ± 3%); (% inhibition) A2A (hA2AAR): (13 ± 3%); (% inhibition) A3 (hA3AR; percent inhibition of radioligand binding at 10 μM): (48 ± 2%)
O[C@@H]1[C@H](O)[C@@H]2C[C@@H]2[C@H]1n1cnc2c(N[C@@H](c3ccccc3)C3CC3)nc(Cl)nc21 [Compound 220, (1R,2R,3S,4R,5S)-4-(2-Chloro-6-((R)-cyclopropylphenylmethylamino)-9H-purin-9-yl)bicyclo[3.1.0]hexane-2,3-diol] | – | 3000 ± 440 | – | – | (% inhibition) A2A (hA2AAR): (46 ± 4%); % Inhibition, cyclic AMP A1 (hA1AR [2]): −7.4 ± 6.0%
CCNc1nc(Cl)nc2c1ncn2[C@H]1[C@H](O)[C@H](O)[C@@H]2C[C@@H]21 [Compound 115, (1R,2R,3S,4R,5S)-4-(2-Chloro-6-(ethylamino)-9H-purin-9-yl)bicyclo[3.1.0]hexane-2,3-diol] | 6.6 ± 1.6 | 930 ± 110 | – | – | (% inhibition) A2A (hA2AAR): (11%)
O[C@@H]1[C@H](O)[C@@H]2C[C@@H]2[C@H]1n1cnc2c(NCCCF)nc(Cl)nc21 [Compound 116, (1R,2R,3S,4R,5S)-4-(2-Chloro-6-(3-fluoropropylamino)-9H-purin-9-yl)bicyclo[3.1.0]hexane-2,3-diol] | 32.4 ± 6.7 | 72.7 ± 28 | – | 23.2 ± 2.6 | –
